Reference: patent US12516285B2, “Small peptide MIPEP166I and use thereof in plant tissue culture” (Nanjing Forestry University, priority 2023, dated 2026)
Marks after values point to notes of the source that are not given here.

Assays:
Assay type in all cases: in vivo, 84K poplar (Populus alba×Populus tremula var. glandulosa)
[1] = system: miR166i; assay: RT-qPCR of miR166i in 84K poplar after exogenous peptide treatment
Protocol: (§1) The three synthetic peptides were each added to MS medium at a concentration of 5 μM as exogenous treatments, while sterile water was chosen as the blank control (CK) treatment (FIG. 1B).
(§2) To investigate the possible role of miPEP166i in its corresponding miRNA biogenesis, RT-qPCR was first used to analyze the abundance changes of pri-miR166i and miR166i in 84K poplar after 24 hours of exogenous treatment.
(§3) During the process of adventitious root elongation, samples collected at 6, 9, and 12 days after cultivation (T1, T2, and T3 stages) were used to detect the expression of miR166i and its targets, aiming to explore the dynamic regulatory pattern of exogenous miPEP166i treatment (FIG. 3A). Due to the equivalence of NSP and IP treatments (FIG. 2G and FIG. 2H), only samples treated with CK, NSP, and miPEP, along with control samples, were used for quantitative miRNA expression and transcriptome sequencing analysis.

[2] = system: 84K poplar; assay: Adventitious root formation and elongation in tissue culture on peptide-treated MS medium; conditions: 5 μM in MS medium, plants cultured for two weeks, n=15
Protocol: as §1
This may be due to the exogenous peptides acting as biological stimulants and osmotic agents, broadly inducing miRNA expression, with the lowest expression of miR166i observed in the CK samples.

[3] = system: root systems of 84K poplar; assay: Time-course transcriptome (RNA-seq), differentially expressed genes; conditions: for differentially expressed genes (DEGs): miPEP vs mock and vs NSP, |log2FC|>1 and FDR<0.05
Excerpt: as §3
(§4) RNA-seq libraries were constructed from the root systems of 84K poplar to investigate the effects of miPEP166i induction on miR166i targets.
(§5) Using time-course transcriptome data from the root systems of 84K poplar, we explored the potential downstream gene expression responses induced by exogenous application of miPEP166i. By cross-comparing miPEP treatment with mock treatment and miPEP treatment with NSP treatment, we identified 114, 130, and 547 differentially expressed genes (DEGs) (|log2FC|>1 and FDR<0.05) at the T1, T2, and T3 stages, respectively. […] These genes are controlled by the master switches of HD-ZIP III transcription factors.

[4] = system: PagREV; assay: Expression of miR166i target gene PagREV (RT-qPCR and RNA-seq)
Excerpt: as §3, §4

[5] = system: pri-miR166i; assay: RT-qPCR of pri-miR166i in 84K poplar stem explants after exogenous peptide treatment; conditions: 5 μM in MS medium, 24 hours, vs control treatments
Protocol: as §1, §2

[6] = system: Genes in Hormone Metabolism and Signaling Pathways; assay: Time-course transcriptome (RNA-seq), hormone-related genes
Excerpt: as §3, §4, §5
Multiple intersections between hormone signaling and HD-ZIP III activity occur during root elongation. Numerous plant hormone-related genes were found within the DEG set, including genes related to auxin and cytokinin synthesis, (De)conjugation, transport, and signaling (Table 1).

[7] = system: PagHB8; assay: Expression of miR166i target gene PagHB8 (RT-qPCR and RNA-seq)
Excerpt: as §3, §4

[8] = T1 stage (6 days after culture), P<0.05
[9] = T2 and T3 stages (9 and 12 days after culture)
[10] = T3 stage (12 DAC), miPEP vs NSP

In the case of “IP: interference control peptide, same amino acids but different sequence, MSDFGGQPTLPFCLSSLNPKSTLK (SEQ ID NO.5)”, the “expression of miR166i compared to NSP samples” value ([1]; 5 μM in MS medium, stem explants, 24 hours) was “slightly higher expression of miR166i was observed after IP treatment compared to its expression in NSP samples, the difference was not significant”, the “length of adventitious roots” value [2] was “equivalence” and the “number of adventitious roots” value [2] was “equivalence”.

In the case of “NSP: non-specific control peptide of 15 amino acids, CLLNCPIYWQQLREX (SEQ ID NO.4)”, the “length of adventitious roots” value [2] was “equivalence” and the “number of adventitious roots” value [2] was “equivalence”.

In the case of “miPEP166i: small peptide encoded by pri-miRNA166i of 84K poplar, amino acid sequence SEQ ID NO.3 (MDGQTPCSLPSLSFGPLFLSNKTK; Populus alba x Populus tremula var. glandulosa)”, the “expression of miR166i” value ([1]; 5 μM in MS medium, stem explants, 24 hours, vs the three control treatments) was “significantly enhanced”, the miR166i expression ([1]; T1, T2 and T3 stages (6, 9, 12 days after culture), vs CK and NSP) was “significant enhancement” and the “differentially expressed genes (DEGs)” value ([3]; T1 stage) was 114. The “differentially expressed genes (DEGs)” value ([3]; T2 stage) was 130, the “differentially expressed genes (DEGs)” value ([3]; T3 stage) was 547 and the downregulated genes ([3]; across all three stages) was 139. For the same substance, the upregulated genes ([3]; across all three stages) was 552, the “expression of genes involved in cellulose and lignin biosynthesis (PagCSLD4, PagCAD7, PagCOBL1, PagPAL2)” value ([3]; miPEP-treated samples, root transcriptome) was “upregulated” and the “expression of PagREV” value [4, 8] was “significantly reduced”. For the same substance, the “expression of PagREV” value [4, 9] was “no significant reduction”, the “expression of pri-miR166i” value [5] was “did not result in significant changes” and the “FC_T1 miPEP/CK, ABCB9 (Pag_G_024492)” value ([6]; T1 stage (6 DAC), miPEP vs CK) was −1.07*. The “FC_T1 miPEP/CK, CKX3 (Pag_A_037490)” value ([6]; T1 stage (6 DAC), miPEP vs CK) was 4.85*, the “FC_T1 miPEP/CK, GH3.10 (Pag_A_034334)” value ([6]; T1 stage (6 DAC), miPEP vs CK) was −2.92* and the “FC_T1 miPEP/CK, GH3.10 (Pag_G_015269)” value ([6]; T1 stage (6 DAC), miPEP vs CK) was −1.67**. The “FC_T1 miPEP/CK, GH3.10 (Pag_G_025244)” value ([6]; T1 stage (6 DAC), miPEP vs CK) was −4.42*, the “FC_T1 miPEP/CK, LOG5 (Pag_G_021773)” value ([6]; T1 stage (6 DAC), miPEP vs CK) was −1.91* and the “FC_T1 miPEP/NSP, ABCB9 (Pag_G_024492)” value ([6]; T1 stage (6 DAC), miPEP vs NSP) was −0.72. The “FC_T1 miPEP/NSP, CKX3 (Pag_A_037490)” value ([6]; T1 stage (6 DAC), miPEP vs NSP) was 2.61, the “FC_T1 miPEP/NSP, GH3.10 (Pag_A_034334)” value ([6]; T1 stage (6 DAC), miPEP vs NSP) was −2.2 and the “FC_T1 miPEP/NSP, GH3.10 (Pag_G_015269)” value ([6]; T1 stage (6 DAC), miPEP vs NSP) was −1.21*. For the same substance, the “FC_T1 miPEP/NSP, GH3.10 (Pag_G_025244)” value ([6]; T1 stage (6 DAC), miPEP vs NSP) was −3.64, the “FC_T1 miPEP/NSP, LOG5 (Pag_G_021773)” value ([6]; T1 stage (6 DAC), miPEP vs NSP) was −2.14* and the “FC_T2 miPEP/CK, CKI1 (Pag_A_024550)” value ([6]; T2 stage (9 DAC), miPEP vs CK) was 1.02**. For the same substance, the “FC_T2 miPEP/CK, CKI1 (Pag_G_014127)” value ([6]; T2 stage (9 DAC), miPEP vs CK) was 0.93*, the “FC_T2 miPEP/CK, CKX1 (Pag_G_016517)” value ([6]; T2 stage (9 DAC), miPEP vs CK) was −1.17 and the “FC_T2 miPEP/CK, TAA1 (Pag_G_035628)” value ([6]; T2 stage (9 DAC), miPEP vs CK) was 0.74. For the same substance, the “FC_T2 miPEP/CK, TAA1 (Pag_G_035629)” value ([6]; T2 stage (9 DAC), miPEP vs CK) was 0.78, the “FC_T2 miPEP/NSP, CKI1 (Pag_A_024550)” value ([6]; T2 stage (9 DAC), miPEP vs NSP) was 1.11** and the “FC_T2 miPEP/NSP, CKI1 (Pag_G_014127)” value ([6]; T2 stage (9 DAC), miPEP vs NSP) was 1.14**. For the same substance, the “FC_T2 miPEP/NSP, CKX1 (Pag_G_016517)” value ([6]; T2 stage (9 DAC), miPEP vs NSP) was −2.19*, the “FC_T2 miPEP/NSP, TAA1 (Pag_G_035628)” value ([6]; T2 stage (9 DAC), miPEP vs NSP) was 1.72* and the “FC_T2 miPEP/NSP, TAA1 (Pag_G_035629)” value ([6]; T2 stage (9 DAC), miPEP vs NSP) was 1.49**. For the same substance, the “expression of genes encoding auxin transport proteins (PIN, ABCB, PIN-LIKES)” value ([6]; T3 stage) was “significantly increased”, the “FC_T3 miPEP/CK, ABCB8 (Pag_A_020924)” value ([6]; T3 stage (12 DAC), miPEP vs CK) was −1.18** and the “FC_T3 miPEP/CK, ABCB11 (Pag_A_005381)” value ([6]; T3 stage (12 DAC), miPEP vs CK) was 2.40**. The “FC_T3 miPEP/CK, ABCB11 (Pag_A_010928)” value ([6]; T3 stage (12 DAC), miPEP vs CK) was 1.90**, the “FC_T3 miPEP/CK, ABCB11 (Pag_G_007723)” value ([6]; T3 stage (12 DAC), miPEP vs CK) was 2.08** and the “FC_T3 miPEP/CK, ABCB15 (Pag_A_017535)” value ([6]; T3 stage (12 DAC), miPEP vs CK) was 1.05**. For the same substance, the “FC_T3 miPEP/CK, ABCB15 (Pag_G_028009)” value ([6]; T3 stage (12 DAC), miPEP vs CK) was 1.21**, the “FC_T3 miPEP/CK, ABCB25 (Pag_A_009324)” value ([6]; T3 stage (12 DAC), miPEP vs CK) was 1.18 and the “FC_T3 miPEP/CK, ARF11 (Pag_G_003815)” value ([6]; T3 stage (12 DAC), miPEP vs CK) was −1.75**. For the same substance, the “FC_T3 miPEP/CK, IAA29 (Pag_G_007396)” value ([6]; T3 stage (12 DAC), miPEP vs CK) was −0.94*, the “FC_T3 miPEP/CK, LOG1 (Pag_A_016041)” value ([6]; T3 stage (12 DAC), miPEP vs CK) was −2.72** and the “FC_T3 miPEP/CK, LOG3 (Pag_G_010191)” value ([6]; T3 stage (12 DAC), miPEP vs CK) was −1.55. For the same substance, the “FC_T3 miPEP/CK, PILS3 (Pag_A_012930)” value ([6]; T3 stage (12 DAC), miPEP vs CK) was 4.74*, the “FC_T3 miPEP/CK, PILS7 (Pag_G_005929)” value ([6]; T3 stage (12 DAC), miPEP vs CK) was 0.96** and the “FC_T3 miPEP/CK, PIN7 (Pag_A_015236)” value ([6]; T3 stage (12 DAC), miPEP vs CK) was 1.33**. For the same substance, the “FC_T3 miPEP/CK, PIN8 (Pag_A_008558)” value ([6]; T3 stage (12 DAC), miPEP vs CK) was −1.07*, the “FC_T3 miPEP/CK, PIN8 (Pag_G_019315)” value ([6]; T3 stage (12 DAC), miPEP vs CK) was 1.02** and the “FC_T3 miPEP/NSP, ABCB8 (Pag_A_020924)” value [6, 10] was −0.71. For the same substance, the “FC_T3 miPEP/NSP, ABCB11 (Pag_A_005381)” value [6, 10] was 1.34**, the “FC_T3 miPEP/NSP, ABCB11 (Pag_A_010928)” value [6, 10] was 1.13* and the “FC_T3 miPEP/NSP, ABCB11 (Pag_G_007723)” value [6, 10] was 1.34*. The “FC_T3 miPEP/NSP, ABCB15 (Pag_A_017535)” value [6, 10] was 1.11**, the “FC_T3 miPEP/NSP, ABCB15 (Pag_G_028009)” value [6, 10] was 1.27** and the “FC_T3 miPEP/NSP, ABCB25 (Pag_A_009324)” value [6, 10] was 3.26*. The “FC_T3 miPEP/NSP, ARF11 (Pag_G_003815)” value [6, 10] was −1.14*, the “FC_T3 miPEP/NSP, IAA29 (Pag_G_007396)” value [6, 10] was −1.21** and the “FC_T3 miPEP/NSP, LOG1 (Pag_A_016041)” value [6, 10] was −2.28*. For the same substance, the “FC_T3 miPEP/NSP, LOG3 (Pag_G_010191)” value [6, 10] was −1.86*, the “FC_T3 miPEP/NSP, PILS3 (Pag_A_012930)” value [6, 10] was −2.93 and the “FC_T3 miPEP/NSP, PILS7 (Pag_G_005929)” value [6, 10] was 1.03**. For the same substance, the “FC_T3 miPEP/NSP, PIN7 (Pag_A_015236)” value [6, 10] was 1.08**, the “FC_T3 miPEP/NSP, PIN8 (Pag_A_008558)” value [6, 10] was −0.94 and the “FC_T3 miPEP/NSP, PIN8 (Pag_G_019315)” value [6, 10] was 1.16**. For the same substance, the “expression of PagCKI1 (cytokinin signaling)” value ([6]; miPEP-treated samples) was “upregulated”, the “expression of PagGH3 (auxin conjugation)” value ([6]; miPEP-treated samples) was “downregulated” and the “expression of auxin synthesis gene PagTAA1” value ([6]; miPEP-treated samples) was “significantly upregulated”. The “expression of cytokinin synthesis gene PagLOG” value ([6]; miPEP-treated samples) was “significantly downregulated”, the “expression of PagHB8” value [7, 8] was “significantly reduced” and the “expression of PagHB8” value [7, 9] was “no significant reduction”. For the same substance, the “length of adventitious roots” value [2] was “significant increase” and the “number of adventitious roots” value [2] was “significant increase”.
